Reference: patent US8334253B2, “Cosmetic and dermatological formulations of MNTF peptides” (Dermacare Neuroscience Institute, priority 2008, dated 2012)
Peptide text beside a SMILES is read from it. * marks the point of attachment. Palmitoyl = CCCCCCCCCCCCCCCC(=O)*

Assays:
[1] = tested on: UVA-bleaching of beta-carotene; test: UVA bleaching of beta-carotene on forearm skin, Color Index by CHROMAMETER; assay type: in vivo, human; conditions: 0.1% gel on human forearm, UVA
Method: In-vivo method for assessing the protective effects of cosmetic products. Bleaching of carotenoids have been used to evaluate the auto-oxidation activity of natural products. The relative efficacy of scavengers of lipid peroxyl free radicals after application to the skin was assessed by measuring the UVA-bleaching of beta-carotene as a function of the energy exposure.
A CHROMAMETER colorimeter (TM, Minolta Model CR-300) was used to measure changes in color by expressing the color of measured surfaces numerically in L*a*b* color space which is a system recommended by the CIE (Commission Internationale de I'Eclairage) for skin color assessment. In this color space, L* is the luminance and gives the relative brightness from total black (L*=0) to total white (L*=100). The a* value represents the balance between the reds (positive values) and the greens (negative values). The b* value represents the balance between the yellows (positive values) and the blues (negative values). The b* value most closely describes the intensity of the orange color of the β-carotene stain and is in direct correlation with the Color Index, I. The CHROMAMETER provides a means by which oxidative damage caused by free radicals and, conversely, the prevention of oxidation by free radical scavengers, can be measured. Free radical oxidation induced by UVA radiation elicits a bleaching and reduction of color of beta-carotene stain. The bleaching and prevention of bleaching by a test material can be measured by the CHROMAMETER. Bleaching is reported as the change in b* versus UVA Irradiation Energy. It can also be expressed in terms of a Color Index, I, defined as: I=[(bn*−bi*)/(b0*−bi*)]×100 where, bn* is the value of b* measured after n J/cm^2 of irradiation of the area treated with the cosmetic formulation and painted with the β-carotene; b0* is the value of b* after application of the beta-carotene but before irradiation; and bi* is the value of b* before application of the beta-carotene. This index compensates for any effects of skin color on bn* and b0*. Bleaching will cause bn* value and I value (as a percentage) to decrease. Prevention of bleaching will result in higher I values or less reduction in I value when exposed to radiation.
The designated forearm of impaneled subjects was cleansed with a 70% isopropyl alcohol prep pad (Medium, Dynarex) and allowed to dry. Test sites were selected on the volar surface of the designated forearm of each subject, with each test site defined by the open, central area of a self-adhesive ring (Professional ProFoot™ Products, P.P.R. Co, Inc.). The adhesive side of the rings were placed directly on the skin. The rings were used to retain the test material and beta-carotene solution as well as to function as a guide for taking measurements with the CHROMAMETER.
Gel formulations (0.1% Pal-hexapeptide) and (0.1% hexapeptide) were applied to the forearm according to a randomized schedule. Additional sites were treated with a beta-carotene control, a positive control (internal control) and an untreated control. Treatment of the test sites were randomized for each subject.
Prior to application of the test materials or beta-carotene, the initial b* parameter was measured using the CHROMAMETER and recorded for all duplicate test sites of the forearm (Baseline). Approximately 2 mg/cm^2 of each material was applied to the designated test site and spread manually with a finger cot to ensure even distribution. Sites designated as untreated, with or without beta-carotene, remained untreated at this time. The test materials and internal control were allowed to incubate with the skin surface for a period of fifteen (15) minutes. After this incubation period, b* measurements were recorded for all sites (Product Baseline).
A solution of beta-carotene in a mixture of capric and caprylic triglycerides was applied to all treated sites. The b* parameter is again measured and recorded (beta-carotene Baseline). […]

[2] = tested on: hyaluronic acid levels in adult human dermal fibroblast (aHDF) conditioned media; test: Hyaluronic acid in fibroblast-conditioned medium (HA-ELISA); assay type: cell-based; conditions: 96 h
Excerpt: Hyaluronic acid (hyaluronan, HA), a naturally occurring carbohydrate polymer is a key component of connective, epithelial and neural tissues. HA participates in hydrodynamics, movement and proliferation of cells. This test was designed to determine whether a sample of palmitylated and non-palmitylated MNTF hexapeptide has an effect on hyaluronic acid levels in the adult human dermal fibroblast (aHDF) conditioned media.
Adult HDF (facial, passage 2, Cell Applications, San Diego, Calif. cat.#106-05A lot#1392) were plated in high glucose phosphate-free DMEM supplemented with 5% cosmic serum from Hyclone, Utah) at 6,000 cells per well and test materials were added the following day. Test materials were: Pal-Hexapeptide (palmitylated SEQ ID NO:2 as a lyophilized powder labeled APC 341055, lot V08150A1, received from DermaCare Neuroscience Institute), type I sterile water (negative control) and basic fibroblast growth factor (bFGF, positive control). Pal-Hexapeptide was dissolved in water at 20 mg/ml. Final concentrations tested were: 400, 200, 100, 50 and 25 ug/ml for DNP and 5 ng/ml for bFGF (plate 507). After 96 h, cell culture conditioned media were collected and 100 ul aliquotes were used for the HA assay. HA assay was performed using Hyaluronan Enzyme-Linked Immunosorbent Assay Kit (HA-ELISA, cat. #K-1200) from Echelon (Salt Lake City, Utah). The HA output was measured by following the generation of a chromophoric reaction product in 96 well plate, with the use of a BioRad microplate reader at 410 nm and the effect of the test materials was determined using the formula: Absorbance 410 (sample)/Absorbance 410 (Zero HA)×100.
Adult HDF (facial, passage 2, Cell Applications, San Diego, Calif. cat.#106-05A lot#1392) were plated in high glucose phosphate-free DMEM supplemented with 5% cosmic serum from Hyclone, Utah) at 6,000 cells per well and test materials were added the following day. Test materials were: hexapeptide (SEQ ID NO:2 (non-palmitylated), lyophilized powder lot #D294, received from DermaCare Neuroscience Institute), type I sterile water (negative control) and basic fibroblast growth factor (bFGF, positive control). Pal-Hexapeptide was dissolved in water at 20 mg/ml. Final concentrations tested were: 2000, 1000, 500 and 250 ug/ml for hexapeptide and 5 ng/ml for bFGF (plate 507). After 96 h, cell culture conditioned media were collected and 100 ul aliquotes were used for the HA assay. HA assay was performed using Hyaluronan Enzyme-Linked Immunosorbent Assay Kit (HA-ELISA, cat. #K-1200) from Echelon (Salt Lake City, Utah). The HA output was measured by following the generation of a chromophoric reaction product in 96 well plate, with the use of a BioRad microplate reader at 410 nm and the effect of the test materials was determined using the formula: Absorbance 410 (sample)/Absorbance 410 (Zero HA)×100.

## CCCCCCCCCCCCCCCC(=O)N[C@@H](Cc1ccccc1)C(=O)N[C@@H](CO)C(=O)N[C@@H](CCCNC(=N)N)C(=O)N[C@@H](Cc1ccc(O)cc1)C(=O)N[C@@H](C)C(=O)N[C@@H](CCCNC(=N)N)C(=O)O [Pal 6 mer, Pal-FSRYAR] (Palmitoyl-FSRYAR-OH; C-terminus assumed)
[1]
  preventing the bleaching of beta-carotene compared to the beta-carotene control: effective as a free radical scavenger
[2]; 50 ug/ml
  stimulation of hyaluronic acid in the fibroblast-conditioned medium: about 15%
[2]; 100 ug/ml
  stimulation of hyaluronic acid in the fibroblast-conditioned medium: about 15%
[2]; 200 ug/ml
  stimulation of hyaluronic acid in the fibroblast-conditioned medium: 40%
[2]; 400 ug/ml
  stimulation of hyaluronic acid in the fibroblast-conditioned medium: 40%
